The source of these data is patent US10526316B2, “Quinoxaline and pyridopyrazine derivatives as PI3Kβ inhibitors” (Janssen Pharmaceutica NV, priority 2015, dated 2020).

Like-named read-outs stand apart in the source and are kept apart here.

Broadly, the Kd is the equilibrium constant for the complex coming apart. One may read the IC50 as the concentration needed to halve the response being measured.

Test [1] deals with T1, kinase enzymes (Homo sapiens, UniProt P42336).
T1 construct: purchased DiscoveRx Corporation, San Diego (contract service, KINOMEscan)
Nature of the test: Enzyme binding assay (KINOMEscan, DiscoveRx), further kinases of Table A. The note with it: PIK3Cα_h. The method, then: (§1) Enzyme Binding Assays (KINOMEscan®)
(§2) Kinase enzyme binding affinities of compounds disclosed herein were determined using the KINOMEscan technology performed by DiscoveRx Corporation, San Diego, Calif., USA (www.kinomescan.com).

The target of test [2] is T2, kinase enzymes (Homo sapiens, UniProt P42345).
T2 construct: purchased DiscoveRx Corporation, San Diego (contract service, KINOMEscan)
Described as above. Conditions: MTOR_h. The method, then:
as §1, §2

The target in test [3] is T3, kinase enzymes (Homo sapiens, UniProt P48736).
T3 construct: purchased DiscoveRx Corporation, San Diego (contract service, KINOMEscan)
The test is described as above. Conditions: PIK3Cγ_h. The method, then: as §1, §2

The target in another test is T4, PI3Kβ (Homo sapiens, UniProt P42338).
T4 construct: purchased DiscoveRx Corporation, San Diego (contract service, KINOMEscan)
Nature of the test: Enzyme binding assay (KINOMEscan, DiscoveRx). Conditions: PIK3Cβ_h, read-out: Kd PIK3Cβ_h. The method, then:
as §1
Kinase enzyme binding affinities of compounds disclosed herein were determined using the KINOMEscan technology performed by DiscoveRx Corporation, San Diego, Calif., USA (www.kinomescan.com). Table A reports the obtained Kd values (nM), with the Kd being the inhibitor binding constant: […]

Another test addresses T5, PI3Kδ (Homo sapiens, UniProt O00329).
T5 construct: purchased DiscoveRx Corporation, San Diego (contract service, KINOMEscan)
T5 sequence (O00329 1-1044): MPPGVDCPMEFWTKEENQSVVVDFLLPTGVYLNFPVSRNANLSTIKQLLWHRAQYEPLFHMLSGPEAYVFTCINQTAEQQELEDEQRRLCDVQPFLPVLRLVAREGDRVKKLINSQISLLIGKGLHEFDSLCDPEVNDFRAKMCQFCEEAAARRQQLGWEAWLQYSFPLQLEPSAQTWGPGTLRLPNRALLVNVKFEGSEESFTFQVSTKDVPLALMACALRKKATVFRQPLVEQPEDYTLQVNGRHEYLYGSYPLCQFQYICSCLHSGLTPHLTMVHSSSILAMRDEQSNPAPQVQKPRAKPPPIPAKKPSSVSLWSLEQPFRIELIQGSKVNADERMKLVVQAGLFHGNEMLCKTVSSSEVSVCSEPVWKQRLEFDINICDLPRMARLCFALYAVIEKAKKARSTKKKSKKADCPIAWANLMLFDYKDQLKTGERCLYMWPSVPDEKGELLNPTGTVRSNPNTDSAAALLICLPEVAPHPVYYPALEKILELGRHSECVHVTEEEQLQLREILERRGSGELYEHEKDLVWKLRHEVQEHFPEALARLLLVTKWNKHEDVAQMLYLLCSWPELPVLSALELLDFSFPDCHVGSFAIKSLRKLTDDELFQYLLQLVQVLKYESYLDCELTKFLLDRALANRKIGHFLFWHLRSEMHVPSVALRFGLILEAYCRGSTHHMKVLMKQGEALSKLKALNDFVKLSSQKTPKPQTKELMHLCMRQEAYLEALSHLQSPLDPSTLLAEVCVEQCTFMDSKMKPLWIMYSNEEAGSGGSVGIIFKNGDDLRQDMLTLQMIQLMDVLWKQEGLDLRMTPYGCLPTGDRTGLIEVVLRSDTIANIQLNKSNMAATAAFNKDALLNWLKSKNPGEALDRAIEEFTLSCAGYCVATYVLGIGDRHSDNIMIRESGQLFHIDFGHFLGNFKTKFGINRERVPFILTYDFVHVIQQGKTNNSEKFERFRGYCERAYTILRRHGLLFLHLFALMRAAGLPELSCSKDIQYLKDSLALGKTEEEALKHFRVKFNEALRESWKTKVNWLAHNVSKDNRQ
Nature of the test: Enzyme binding assay (KINOMEscan, DiscoveRx). The note with it: PIK3Cδ_h. The method, then: as §1, §2

Test [4] relates to Akt phosphorylated at Thr308 in PC-3 cells. Nature of the test: Cellular assay: phosphorylation of Akt at Thr308 in PC-3 cells (MSD ELISA). The class given is cell-based. Conditions: PC-3 cells, 60 min compound incubation, MSD ELISA, read-out: IC50 pAkt_Thr308. The method, then: (§3) Cellular activity of PI3KP inhibitors was determined by quantifying the phosphorylation of Akt in PC-3 cells. Akt phosphorylated at Ser473 and Thr308 were measured using an enzyme-linked immunosorbent assay (ELISA; Meso Scale Discovery (MSD), Gaithersburg. Md.) and specific primary antibodies from MSD.
(§4) On day 2, compound or DMSO (0.3%) was added and cells were further incubated for 60 min at 37° C. 5% CO2 in a total volume of 100 μl of medium.
(§5) The phosphoprotein assay was executed according to vendor instructions in the Phospho-Akt (Ser473) Assay Whole Cell Lysate Kit (MSD # K15100D-3) and the Phospho-Akt (Thr308) Assay Whole Cell Lysate Kit (MSD # K151DYD-3) using the lysis, blocking and wash buffer provided.
(§6) Briefly, at the end of the cell treatment period, media were removed by aspiration and adherent cells were lysed in 50 μl ice-cold lysis buffer. MSD plates are supplied pre-coated with capture antibodies for Phospho-Akt (Ser473 and Thr308). After blocking, lysates from tissue culture plates were added and plates were washed. Then, a solution containing the detection antibody (anti-total Akt conjugated with an electrochemiluminescent compound-MSD Sulfo-tag label) was added. The signals were detected using an MSD SECTOR Imager 6000 and are proportional to the phospho-Akt titres.
(§7) Data were processed. […] From these concentration-response curves, the IC50 values were calculated. Five concentrations were used for curve fitting.

Test [5] deals with Akt phosphorylated at Ser473 in PC-3 cells. Nature of the test: Cellular assay: phosphorylation of Akt at Ser473 in PC-3 cells (MSD ELISA). The class given is cell-based. Conditions: PC-3 cells, 60 min compound incubation, MSD ELISA, read-out: IC50 pAkt_S473. The method, then:
as §3, §4, §5, §6, §7
In general terms: An ELISA detects its analyte on a solid surface through an enzyme-linked reagent.

T4 sequence (P42338 whole entry): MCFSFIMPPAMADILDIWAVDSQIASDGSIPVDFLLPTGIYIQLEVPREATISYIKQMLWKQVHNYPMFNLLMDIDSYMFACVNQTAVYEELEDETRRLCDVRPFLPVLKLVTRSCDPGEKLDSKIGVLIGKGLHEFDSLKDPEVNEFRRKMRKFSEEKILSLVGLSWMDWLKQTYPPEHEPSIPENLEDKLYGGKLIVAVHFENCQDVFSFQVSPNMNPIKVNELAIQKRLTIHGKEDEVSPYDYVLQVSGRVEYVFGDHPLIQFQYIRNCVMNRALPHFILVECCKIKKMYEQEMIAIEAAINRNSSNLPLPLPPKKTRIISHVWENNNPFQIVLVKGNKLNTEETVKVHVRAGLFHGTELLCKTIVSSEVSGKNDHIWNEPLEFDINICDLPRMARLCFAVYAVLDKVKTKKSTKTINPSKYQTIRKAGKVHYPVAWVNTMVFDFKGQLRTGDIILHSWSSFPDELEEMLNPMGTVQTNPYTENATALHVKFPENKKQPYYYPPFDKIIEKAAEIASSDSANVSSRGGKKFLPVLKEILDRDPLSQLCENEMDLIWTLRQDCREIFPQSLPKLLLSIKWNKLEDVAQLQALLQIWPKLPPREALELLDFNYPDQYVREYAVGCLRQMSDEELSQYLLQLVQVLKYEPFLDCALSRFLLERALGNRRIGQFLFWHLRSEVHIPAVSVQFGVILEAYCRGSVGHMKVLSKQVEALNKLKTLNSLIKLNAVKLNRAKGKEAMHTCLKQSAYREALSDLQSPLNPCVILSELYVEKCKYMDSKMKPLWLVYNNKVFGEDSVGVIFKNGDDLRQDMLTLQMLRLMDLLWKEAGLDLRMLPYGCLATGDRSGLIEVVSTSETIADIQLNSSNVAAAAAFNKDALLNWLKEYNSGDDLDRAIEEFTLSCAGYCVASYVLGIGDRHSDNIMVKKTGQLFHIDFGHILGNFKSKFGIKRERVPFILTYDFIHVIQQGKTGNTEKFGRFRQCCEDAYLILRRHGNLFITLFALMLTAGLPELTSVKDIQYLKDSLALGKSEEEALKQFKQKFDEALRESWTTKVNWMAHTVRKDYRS
T1 sequence (P42336 whole entry): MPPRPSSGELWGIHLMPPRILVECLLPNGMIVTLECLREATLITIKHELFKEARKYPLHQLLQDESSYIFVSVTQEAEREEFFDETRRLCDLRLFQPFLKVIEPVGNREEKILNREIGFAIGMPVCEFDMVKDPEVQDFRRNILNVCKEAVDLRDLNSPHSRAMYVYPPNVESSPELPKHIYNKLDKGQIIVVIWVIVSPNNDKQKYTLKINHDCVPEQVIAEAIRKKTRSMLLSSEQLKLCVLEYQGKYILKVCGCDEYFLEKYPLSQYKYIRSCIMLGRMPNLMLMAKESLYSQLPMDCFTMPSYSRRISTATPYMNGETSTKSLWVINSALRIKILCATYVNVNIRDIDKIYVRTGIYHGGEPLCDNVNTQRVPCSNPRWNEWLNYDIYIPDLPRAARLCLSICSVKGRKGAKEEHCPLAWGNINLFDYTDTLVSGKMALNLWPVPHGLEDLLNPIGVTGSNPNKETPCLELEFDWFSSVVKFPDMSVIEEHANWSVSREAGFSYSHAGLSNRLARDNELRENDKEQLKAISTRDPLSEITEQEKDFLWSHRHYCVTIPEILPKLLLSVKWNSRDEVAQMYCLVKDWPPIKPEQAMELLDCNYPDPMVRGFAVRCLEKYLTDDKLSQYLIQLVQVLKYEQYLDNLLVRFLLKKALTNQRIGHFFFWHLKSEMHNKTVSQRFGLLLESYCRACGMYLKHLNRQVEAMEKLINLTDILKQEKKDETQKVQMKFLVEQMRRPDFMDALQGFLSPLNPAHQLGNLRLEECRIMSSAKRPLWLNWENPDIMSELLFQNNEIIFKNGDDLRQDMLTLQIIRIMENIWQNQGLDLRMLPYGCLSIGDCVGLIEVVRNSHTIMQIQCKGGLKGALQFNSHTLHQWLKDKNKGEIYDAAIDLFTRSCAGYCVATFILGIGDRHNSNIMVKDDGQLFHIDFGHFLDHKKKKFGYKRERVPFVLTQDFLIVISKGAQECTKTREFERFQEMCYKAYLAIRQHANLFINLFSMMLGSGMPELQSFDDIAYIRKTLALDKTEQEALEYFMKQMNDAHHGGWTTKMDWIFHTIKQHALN
T3 sequence (P48736 whole entry): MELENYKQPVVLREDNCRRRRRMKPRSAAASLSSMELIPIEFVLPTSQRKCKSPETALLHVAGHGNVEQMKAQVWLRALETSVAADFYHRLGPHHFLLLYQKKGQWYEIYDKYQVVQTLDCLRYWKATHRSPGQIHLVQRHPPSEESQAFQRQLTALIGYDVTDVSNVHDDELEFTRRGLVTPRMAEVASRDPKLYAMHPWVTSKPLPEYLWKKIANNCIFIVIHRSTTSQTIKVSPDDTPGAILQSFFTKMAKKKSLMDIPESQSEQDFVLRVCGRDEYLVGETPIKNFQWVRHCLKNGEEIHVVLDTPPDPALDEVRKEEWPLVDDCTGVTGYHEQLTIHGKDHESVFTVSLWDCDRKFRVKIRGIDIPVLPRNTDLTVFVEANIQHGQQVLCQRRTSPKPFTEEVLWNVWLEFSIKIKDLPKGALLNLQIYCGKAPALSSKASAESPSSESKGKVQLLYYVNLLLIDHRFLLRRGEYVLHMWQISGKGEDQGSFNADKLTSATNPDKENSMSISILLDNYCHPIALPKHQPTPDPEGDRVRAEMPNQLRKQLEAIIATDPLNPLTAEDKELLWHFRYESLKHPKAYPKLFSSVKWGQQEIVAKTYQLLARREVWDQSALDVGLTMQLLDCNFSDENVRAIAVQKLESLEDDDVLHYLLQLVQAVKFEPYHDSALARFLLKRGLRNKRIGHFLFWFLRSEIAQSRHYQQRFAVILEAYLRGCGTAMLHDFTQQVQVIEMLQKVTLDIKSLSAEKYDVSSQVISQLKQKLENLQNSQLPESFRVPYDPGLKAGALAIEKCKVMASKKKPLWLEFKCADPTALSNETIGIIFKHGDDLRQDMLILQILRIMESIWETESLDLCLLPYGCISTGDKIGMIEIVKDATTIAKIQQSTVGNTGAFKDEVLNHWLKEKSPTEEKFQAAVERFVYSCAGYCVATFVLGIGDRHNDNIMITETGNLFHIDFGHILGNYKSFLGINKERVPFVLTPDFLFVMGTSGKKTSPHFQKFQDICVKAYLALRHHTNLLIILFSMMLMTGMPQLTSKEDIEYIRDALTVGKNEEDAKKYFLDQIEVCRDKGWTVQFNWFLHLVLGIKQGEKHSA

Turning to `CC(Oc1cc(F)cc(F)c1)c1cc(C(=O)N(C)CCO)cc2ncc(N3CCOCC3)nc12` (single isomer, unassigned) [Compound 60], the Kd on kinase enzymes [1] was 22.9 µM; on kinase enzymes [2], > 30.2 µM; at kinase enzymes [3], > 30.2 µM; on PI3Kβ it was 490 nM; at PI3Kδ, 15500 nM. In addition, the IC50 in test [4] and in test [5] was > 513 nM in each case.

Regarding `CC(Oc1cc(F)cc(F)c1)c1cc(C(=O)N(C)CCO)cc2ncc(N3CCOCC3)nc12` (single isomer, unassigned) [Compound 61], the Kd on kinase enzymes [1] was 0.676 µM; at kinase enzymes [2], > 30.2 µM; at kinase enzymes [3] it was 5.25 µM; at PI3Kβ it was 2 nM; on PI3Kδ, 209 nM. In addition, the 50% inhibitory concentration (IC50) in test [4] is 123 nM; in test [5], 182 nM.

For the compound `CC(Oc1cccc(F)c1F)c1cc(C(=O)N(C)C)cc2ncc(N3CCOCC3)nc12` (single isomer, unassigned) [Compound 73], the Kd on kinase enzymes [1] is 2.04 µM; at kinase enzymes [2] it was > 30.2 µM; on kinase enzymes [3] it was 19.5 µM; on PI3Kβ, 9 nM; on PI3Kδ, 282 nM. Moreover, the IC50 was 331 nM in test [4] (Homo sapiens, PC-3, 1 h) and > 513 nM in test [5] (Homo sapiens, PC-3, 1 h).

For the compound `CC(Oc1cccc(F)c1F)c1cc(C(=O)N(C)C)cc2ncc(N3CCOCC3)nc12` (single isomer, unassigned) [Compound 74], the Kd at kinase enzymes [1] is 8.51 µM; at kinase enzymes [2] it was 23.4 µM; on kinase enzymes [3], > 30.2 µM; on PI3Kβ, 603 nM; on PI3Kδ, 5620 nM. The IC50 in test [4] and in test [5] was > 513 nM throughout.

In the case of `CC(Oc1cccc(F)c1)c1cc(CO)cc2ncc(N3CCOCC3)nc12` (single isomer, unassigned) [Compound 88], the Kd was 2.14 µM at kinase enzymes [1]; 14.1 µM on kinase enzymes [2]; 4.68 µM on kinase enzymes [3]; 5 nM at PI3Kβ; 603 nM at PI3Kδ. For the same compound, the IC50 in test [4] stood at 89 nM; in test [5], 178 nM.

Turning to `CC(Oc1cccc(F)c1)c1cc(CO)cc2ncc(N3CCOCC3)nc12` (single isomer, unassigned) [Compound 89], the Kd on kinase enzymes [1] was determined as 7.24 µM; at kinase enzymes [2], 13.5 µM; on kinase enzymes [3], 9.55 µM; at PI3Kβ, 832 nM; at PI3Kδ it was 11700 nM. The IC50 in test [4] and in test [5] was > 513 nM each time.

Take `CCN1CCN(C(=O)c2cc(C(C)Oc3cccc(F)c3)c3nc(N4CCOCC4)cnc3c2)CC1` (single isomer, unassigned) [Compound 91]: the Kd on kinase enzymes [1] was 4.47 µM; on kinase enzymes [2], > 30.2 µM; at kinase enzymes [3], 21.4 µM; at PI3Kβ, 10 nM; at PI3Kδ it was 1230 nM. Also, the IC50 is 234 nM in test [4] and > 513 nM in test [5] (Homo sapiens, PC-3, 1 h).

For `CCN1CCN(C(=O)c2cc(C(C)Oc3cccc(F)c3)c3nc(N4CCOCC4)cnc3c2)CC1` (single isomer, unassigned) [Compound 92], the Kd was 16.2 µM at kinase enzymes [1]; > 30.2 µM on kinase enzymes [2]; > 30.2 µM at kinase enzymes [3]; 1020 nM at PI3Kβ; 16600 nM on PI3Kδ. Besides, the IC50 in test [4] and in test [5] was > 513 nM throughout.

As for `OC(CN1CCC1)c1cc(C2CCCN2c2cc(F)cc(F)c2)c2nc(N3CCOCC3)cnc2c1` (single isomer, unassigned) [Compound 95], the Kd was 0.295 µM on kinase enzymes [1]; > 30.2 µM on kinase enzymes [2]; 1.1 µM at kinase enzymes [3]; 0.5 nM at PI3Kβ; 178 nM on PI3Kδ. The IC50 in test [4] was 18 nM; in test [5] it was 34 nM.

In the case of `Cc1cccc(N(C)C(C)c2cc(C(=O)N(C)C)cc3ncc(N4CCOCC4)nc23)c1` (single isomer, unassigned) [Compound 128], the Kd stood at 4.9 µM on kinase enzymes [1]; 21.4 µM at kinase enzymes [2]; 12.3 µM at kinase enzymes [3]; 1120 nM on PI3Kβ; 15100 nM on PI3Kδ. Moreover, the IC50 in test [4] and in test [5] was > 513 nM each time.

Take `CNCCNC(=O)c1cc(C(C)Nc2cccc(F)c2)c2nc(N3CCOCC3)cnc2c1` (single isomer, unassigned) [Compound 138]: the dissociation constant (Kd) at kinase enzymes [1] worked out at 0.398 µM; on kinase enzymes [2] it was 30.9 µM; at kinase enzymes [3], 2.15 µM; on PI3Kβ, 0.1 nM; at PI3Kδ it was 56 nM. Moreover, the IC50 was 2 nM in test [4] and 3 nM in test [5].

As for `CNCCNC(=O)c1cc(C(C)Nc2cccc(F)c2)c2nc(N3CCOCC3)cnc2c1` (single isomer, unassigned) [Compound 139], the Kd on kinase enzymes [1] is 3.76 µM; at kinase enzymes [2] it was 18.6 µM; at kinase enzymes [3], 3.43 µM; on PI3Kβ, 41 nM; at PI3Kδ, 4420 nM. The IC50 in test [4] was determined as 249 nM; in test [5] it was 132 nM.

As for `CNCCN(C)C(=O)c1cc(C(C)Nc2cc(F)cc(F)c2)c2nc(N3CCOCC3)cnc2c1` (single isomer, unassigned) [Compound 152], the Kd was 3.98 µM at kinase enzymes [1]; > 30.2 µM on kinase enzymes [2]; 8.71 µM on kinase enzymes [3]; 10 nM on PI3Kβ; 1820 nM at PI3Kδ. The IC50 is 87 nM in test [4] and 62 nM in test [5].

Take `CC(Nc1cc(F)cc(F)c1)c1cc(CO)cc2ncc(N3CCOCC3)nc12` (single isomer, unassigned) [Compound 154a]: the Kd amounted to 0.437 µM on kinase enzymes [1]; 8.51 µM at kinase enzymes [2]; 0.741 µM on kinase enzymes [3]; 1 nM on PI3Kβ; 98 nM at PI3Kδ. For the same compound, the IC50 in test [4] is 23 nM; in test [5] it was 30 nM.

As to `CC(Nc1cc(F)cc(F)c1)c1cc(CN2CCS(=O)(=O)CC2)cc2ncc(N3CCOCC3)nc12` (single isomer, unassigned) [Compound 156], the Kd on kinase enzymes [1] is 0.398 µM; at kinase enzymes [2] it was > 30.2 µM; at kinase enzymes [3], > 30.2 µM; on PI3Kβ, 2 nM; on PI3Kδ it was 363 nM. In addition, the IC50 in test [4] was 51 nM; in test [5], 42 nM.
